52 molecules from PubChem BioAssay AID1996 can be followed below.

≈ marks a conversion by molar mass, not a printed value.

In general, solubility (kinetic) refers to the concentration staying in solution when a stock, usually in DMSO, is diluted into the medium.

For this series the following is noted: buffer; pH 7.4; 200.0 µM.
Turning to `CCOC(=O)c1sc(=NC(=O)c2ccc(C)cc2)n(C)c1C`, the kinetic solubility is less than 0.3 µg/mL.
`Cc1ccc(NC(=O)NCCCN2CCCC2=O)c(C)c1`: the kinetic solubility was more than 43.4 µg/mL.
`Nc1ccc(C(=O)OCC(=O)Nc2cccc(S(=O)(=O)NC3=NCCCCC3)c2)cc1[N+](=O)[O-]` displayed a kinetic solubility of 4.7 µg/mL (≈ 9.6 µM).
Regarding `C=CCOc1ccc(/C=C2\SC(N3CCCCC3)=NC2=O)cc1`, the kinetic solubility was less than 0.4 µg/mL.
As for `c1cncc(CNc2nc(-c3cccnc3)nc3ccccc23)c1`, the figure is more than 47 µg/mL; as for `O=C(CN1CCN(c2ccccc2F)CC1)NCc1ccc(Cl)cc1`, 49.1 µg/mL (≈ 136 µM).
As for `CSc1ncc(CN2CCN(C3CCCC3)C(CCO)C2)cn1` (configuration not stated), the figure is 42.6 µg/mL (≈ 127 µM); as for `COc1ccc(C2/C(=C(/O)c3ccc(F)cc3)C(=O)C(=O)N2CCCN2CCOCC2)cc1OC` (configuration not stated), more than 72.7 µg/mL; as for `CN(C)c1ccc(C(=O)NCCCSc2ccccc2)cc1`, 3.9 µg/mL (≈ 12.4 µM).
As for `COc1ccccc1N1C(=O)c2cccc3cccc(c23)C1=O`, the figure is less than 0.6 µg/mL; as for `O=C(Nc1ccc2ccccc2n1)c1ccc(Cl)cc1`, less than 0.3 µg/mL.
Consider `Cc1ccccc1NC(=O)Nc1ccc2c(c1)OCO2`, for which the solubility (kinetic) stood at 0.5 µg/mL (≈ 1.85 µM).
As for `CCc1ccccc1NC(=O)CCOc1ccccc1`, the figure is 39 µg/mL (≈ 145 µM); as for `CCN(C(=O)C(C)Sc1nnc(-c2ccncc2)n1C)C1CCCCC1` (configuration not stated), more than 56 µg/mL; as for `COC(=O)Cn1c2ccccc2c2nc3ccccc3nc21`, 0.2 µg/mL (≈ 0.687 µM).
`O=C(COc1ccc([N+](=O)[O-])cc1Cl)NCC1CCCO1` (configuration not stated) yielded a kinetic solubility of more than 47.2 µg/mL.
As for `C=CCN1C(=O)C2(OCCCO2)c2cccc(Cl)c21`, the figure is 15.1 µg/mL (≈ 54 µM); as for `CS(=O)(=O)c1ccc(NCCN2CCOCC2)c([N+](=O)[O-])c1`, 44.4 µg/mL (≈ 135 µM).
In turn, `COCCCNC(=S)NCCc1ccc(F)cc1` yielded a kinetic solubility of more than 40.6 µg/mL.
Regarding `COc1ccc(NC(=O)Cc2cccc3ccccc23)cc1`, the solubility (kinetic) worked out at 2.9 µg/mL (≈ 9.95 µM).
As for `CCC1(C)Cc2c(C#N)c(N)n(-c3ccccc3)c(=S)c2CO1` (configuration not stated), the figure is 26.4 µg/mL (≈ 81.1 µM).
As for `COC(=O)Cc1csc(NCc2ccccc2)n1`, the figure is 37.4 µg/mL (≈ 143 µM); as for `CCC(=O)NC1CCN(C(=S)NC)CC1`, more than 34.4 µg/mL.
`N/C(=N\OC(=O)c1ccc([N+](=O)[O-])cc1Cl)c1ccccn1` yielded a kinetic solubility of 12.8 µg/mL (≈ 39.9 µM).
As for `Cc1ccc(S(=O)(=O)NCCC(=O)NNc2c(F)c(F)cc(F)c2F)cc1`, the figure is more than 60.8 µg/mL; as for `NC(=Nc1ccccc1)Nc1ccccc1`, 29.5 µg/mL (≈ 140 µM).
As to `Cc1ccc(CC2SC(N=C(N)N)=NC2=O)cc1` (configuration not stated), the kinetic solubility was more than 39.3 µg/mL.
Turning to `O=C(Nc1ccccn1)c1ccc2c(c1)OCO2`, the solubility (kinetic) is more than 36.3 µg/mL.
As for `ONC(=Nc1cccc(C(F)(F)F)c1)c1cccnc1`, the figure is more than 42.2 µg/mL; as for `CC(=O)NC(CC(=O)N1CCCC1)c1ccccc1` (configuration not stated), more than 39.1 µg/mL; as for `CC(C)(C)C(=O)Nc1ccc(S(=O)(=O)Nc2nccs2)cc1`, more than 50.9 µg/mL.
Take `Nc1c(C(=O)N2CCOCC2)sc2nc3c(cc12)CCCC3`: the solubility (kinetic) is more than 47.6 µg/mL.
As for `COC(=O)c1ccc(C(=O)O)nc1`, the figure is 21.5 µg/mL (≈ 119 µM); as for `Cc1cc(S(=O)(=O)NCc2ccc(N3CCN(C)CC3)cc2)c(C)s1`, 15.8 µg/mL (≈ 41.6 µM).
In turn, `O=C(O/N=C/c1ccc2c(c1)OCO2)c1ccc([N+](=O)[O-])cc1` returned a kinetic solubility of 0.9 µg/mL (≈ 2.86 µM). This solubility kinetic lies about 18-fold lower than the previous one.
As for `FC(F)Oc1ccc(NC(=S)NCc2cccnc2)cc1`, the figure is more than 46.4 µg/mL.
On to `Oc1c(CN2CCCCC2)cc(Br)c2cccnc12`, for which the kinetic solubility was 33.6 µg/mL (≈ 105 µM).
As for `Cc1ccc(NC(=O)CCOc2ccccc2C)cc1C`, the figure is 1.7 µg/mL (≈ 6 µM); as for `CC(NC(=O)COC(=O)c1ccc2c(c1)OCCO2)c1ccccc1` (configuration not stated), 11.4 µg/mL (≈ 33.4 µM); as for `CCOC(=O)c1c[nH]c2ccc3ccccc3c2c1=O`, 10.3 µg/mL (≈ 38.5 µM).
Regarding `CSCC[C@H](NC(=O)Nc1cccc(Br)c1)C(=O)O`, the kinetic solubility was determined as 39.4 µg/mL (≈ 113 µM). This solubility kinetic lies about 3.8-fold higher than the previous one.
Take `CCn1c(C)cc(C)c(C#N)c1=O`: the solubility (kinetic) was more than 26.4 µg/mL.
For the molecule `S=C(NCc1cccs1)NCC1CCCO1` (configuration not stated), the solubility (kinetic) was more than 38.5 µg/mL.
As for `CCOc1ccc(C(C)NC(=O)c2cccs2)cc1OCC` (configuration not stated), the figure is 11.1 µg/mL (≈ 34.7 µM); as for `O=S(=O)(Nc1ccncc1)c1cc(Cl)c(Cl)cc1Cl`, 1.6 µg/mL (≈ 4.74 µM); as for `Cc1onc(-c2ccccc2Cl)c1C(=O)OCC(=O)N1CCC(C)CC1`, more than 56.5 µg/mL.
On to `Cc1ccc(NC(=O)c2cncc(Br)c2)nc1`, for which the kinetic solubility came out at 28.1 µg/mL (≈ 96.2 µM).
As for `Cc1cccc(-c2nc3ccccc3c(=O)[nH]2)c1`, the solubility (kinetic) turned out to be 4.2 µg/mL (≈ 17.8 µM).
Molecule `O=C(Cc1ccccc1)Nc1ccc2c(c1)OC1(CCCC1)O2` had a kinetic solubility of 16.4 µg/mL (≈ 53 µM).
Take `CN(C)c1ccc(C(=O)NCc2ccc3c(c2)CCO3)cc1`: the kinetic solubility worked out at 34.3 µg/mL (≈ 116 µM).
As for `Cc1ccc(OCCNC(=O)CNC(=O)c2ccccc2Cl)cc1`, the figure is more than 52 µg/mL.
As for `CC(O)Cn1c(N2CCCC2)nc2c1c(=O)n(C)c(=O)n2C` (configuration not stated), the figure is more than 46.1 µg/mL.
